Reference: article PMC4266358 (Journal of Medicinal Chemistry, 2014)
pIC50, pKi: −log10 of the molar value. Entries after “also recorded” stand apart in the source; their conditions may differ.

Key:
[1] = tested on: CNS receptors and ion channels (44 off-target sites); experiment: PDSP broad screen of binding at off-target sites; conditions: binding screen at 10 μM / Ki follow-up
Plasma protein binding [2] = experiment: Plasma protein binding
[3] = Stability in human liver microsomes
[4] = Chemical stability in simulated intestinal fluid; conditions: pH 6.5, 37 °C
[5] = tested on: chronic constriction injury (CCI) of the sciatic nerve, mechano-allodynia; experiment: CCI model of neuropathic pain in mice, oral dosing, paw withdrawal threshold; format: in vivo, mouse; conditions: for in vivo duration of action: po, CCI model in mice
[6] = Chemical stability in simulated gastric fluid; conditions: pH 1.6, 37 °C
[7] = Stability in rat liver microsomes
mA3AR = target: T1, mA3AR (Mus musculus, UniProt Q61618); format: cell-based
T1 sequence (Q61618 1-319): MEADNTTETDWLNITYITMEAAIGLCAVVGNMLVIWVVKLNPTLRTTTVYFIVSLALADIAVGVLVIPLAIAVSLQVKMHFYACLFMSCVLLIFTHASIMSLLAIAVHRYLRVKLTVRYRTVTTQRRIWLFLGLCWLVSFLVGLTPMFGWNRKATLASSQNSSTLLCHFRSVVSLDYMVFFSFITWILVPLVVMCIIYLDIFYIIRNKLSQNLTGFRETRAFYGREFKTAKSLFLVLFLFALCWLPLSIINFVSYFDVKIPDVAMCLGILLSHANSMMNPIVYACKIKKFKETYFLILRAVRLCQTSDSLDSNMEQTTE

[8] = Stability in mouse liver microsomes
Plasma protein binding [9] = experiment: Plasma protein binding; remark: listed apart in the source
Plasma protein binding [10] = experiment: Plasma protein binding; remark: listed apart in the source
hA3AR = target: T2, hA3AR (Homo sapiens, UniProt P0DMS8); experiment: Radioligand binding at hA3AR, CHO cell membranes, [125I]I-AB-MECA; conditions: read-out: hA3AR Ki, n = 3–4
T2 sequence (P0DMS8 1-318): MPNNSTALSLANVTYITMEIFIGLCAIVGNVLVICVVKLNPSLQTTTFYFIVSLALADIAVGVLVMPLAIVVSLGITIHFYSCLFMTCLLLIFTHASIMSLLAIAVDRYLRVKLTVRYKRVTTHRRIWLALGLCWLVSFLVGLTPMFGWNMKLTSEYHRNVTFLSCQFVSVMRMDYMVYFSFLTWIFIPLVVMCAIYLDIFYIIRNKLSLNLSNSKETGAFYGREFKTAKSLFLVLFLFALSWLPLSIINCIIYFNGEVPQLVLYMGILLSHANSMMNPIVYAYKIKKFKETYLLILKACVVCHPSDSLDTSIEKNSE

[11] = tested on: CACO-2 cell monolayer / P-glycoprotein; experiment: Bidirectional permeability in CACO-2 cell monolayer; conditions: CACO-2 monolayer; for P-glycoprotein substrate: bidirectional permeability

SMILES: CNC(=O)[C@@]12C[C@@H]1[C@@H](n1cnc3c(NC)nc(C#Cc4ccc(F)c(F)c4)nc31)[C@H](O)[C@@H]2O [Compound 13, reference compound]
- off-target interactions in PDSP screen [1]: inhibited binding by >30% at only a few sites

SMILES: CNC(=O)[C@@]12C[C@@H]1[C@@H](n1cnc3c(NC)nc(C#C[c-]4cccc4)nc31)[C@H](O)[C@@H]2O.[Fe+2].c1cc[cH-]c1 [Compound 36, (1S,2R,3S,4R,5S)-4-(2-((Ferrocen-yl)ethynyl)-6-(methylamino)-9H-purin-9-yl)-2,3-dihydroxy-N-methylbicyclo[3.1.0]hexane-1-carboxamide]
- % unbound in plasma, mouse (Plasma protein binding [2]): 4.85%
- stability in liver microsomes t1/2, human [3]: 3.66 min
- stability in simulated fluids, intestinal, t1/2 [4]: 174 min
- max effect Emax (% ± SEM), % of complete reversal at peak protection ([5]; 3 μmol/kg po on day 7 after CCI, mice, ipsilateral hind paw): 94.3 ± 5.7%
- in vivo duration of action [5]: > 3 h
- stability in simulated fluids, gastric, t1/2 [6]: 46.5 min
- stability in liver microsomes t1/2, rat [7]: 6.64 min
- agonist efficacy at the mA3AR (mA3AR; cyclic AMP assay, HEK293-mA3AR): full agonists
- stability in liver microsomes t1/2, mouse [8]: 1.98 min
- % unbound in plasma, human (Plasma protein binding [9]): 7.00%
- % unbound in plasma, rat (Plasma protein binding [10]): 6.32%
- pKi (hA3AR): 8.57

SMILES: CNC(=O)[C@@]12C[C@@H]1[C@@H](n1cnc3c(NC)nc(C#Cc4ccc(Cl)s4)nc31)[C@H](O)[C@@H]2O [Compound 33, (1S,2R,3S,4R,5S)-4-(2-((5-Chlorothiophen-2-yl)ethynyl)-6-(methylamino)-9H-purin-9-yl)-2,3-dihydroxy-N-methylbicyclo[3.1.0]hexane-1-carboxamide]
- apical to basal permeability [11]: moderate
- P-glycoprotein substrate [11]: not to be substrates for P-glycoprotein
- reversal of neuropathic pain at intermediate dose ([5]; […] po, Figure 1 dose–response): approximately 80%
- in vivo duration of action [5]: > 3 h
- off-target interactions in PDSP screen [1]: largely free of off-target receptor effects, except at TSPO and σ1 and σ2 receptors

SMILES: CNC(=O)[C@@]12C[C@@H]1[C@@H](n1cnc3c(NC)nc(C#Cc4cnccn4)nc31)[C@H](O)[C@@H]2O [Compound 23, (1S,2R,3S,4R,5S)-2,3-Dihydroxy-N-methyl-4-(6-(methylamino)-2-(pyrazin-2-ylethynyl)-9H-purin-9-yl)bicyclo[3.1.0]hexane-1-carboxamide]
- P-glycoprotein substrate [11]: not to be substrates for P-glycoprotein
- off-target interactions in PDSP screen [1]: inhibited binding by >30% at only a few sites

SMILES: CNC(=O)[C@@]12C[C@@H]1[C@@H](n1cnc3c(NC)nc(C#Cc4cnn(C)c4)nc31)[C@H](O)[C@@H]2O [Compound 26, (1S,2R,3S,4R,5S)-2,3-Dihydroxy-N-methyl-4-(2-((1-methyl-1H-pyrazol-4-yl)ethynyl)-6-(methylamino)-9H-purin-9-yl)bicyclo[3.1.0]hexane-1-carboxamide]
- off-target interactions in PDSP screen [1]: relatively free of off-target receptor effects

SMILES: CNC(=O)[C@@]12C[C@@H]1[C@@H](n1cnc3c(NC)nc(C#Cc4ccco4)nc31)[C@H](O)[C@@H]2O [Compound 27, (1S,2R,3S,4R,5S)-4-(2-(Furan-2-ylethynyl)-6-(methylamino)-9H-purin-9-yl)-2,3-dihydroxy-N-methylbicyclo[3.1.0]hexane-1-carboxamide]
- apical to basal permeability [11]: moderate
- P-glycoprotein substrate [11]: not to be substrates for P-glycoprotein
- in vivo duration of action [5]: ~3 h
- off-target interactions in PDSP screen [1]: relatively free of off-target receptor effects; also recorded: completely lacks off-target interactions at 10 μM

SMILES: CNC(=O)[C@@]12C[C@@H]1[C@@H](n1cnc3c(NC)nc(C#Cc4cccs4)nc31)[C@H](O)[C@@H]2O [Compound 32, (1S,2R,3S,4R,5S)-2,3-Dihydroxy-N-methyl-4-(6-(methylamino)-2-(thiophen-2-ylethynyl)-9H-purin-9-yl)bicyclo[3.1.0]hexane-1-carboxamide]
- pIC50 (mA3AR): 7.22
- off-target interactions in PDSP screen [1]: inhibited binding by >30% at only a few sites
